Measurements reported in US5162231A, “Method of using 5,10,15,20-tetrakis(carboxyphenyl)porphine for detecting cancers of the lung” (priority 1990, dated 1992).

Legend:
[1] = system: neoplastic sputum cells; test: TCPP fluorescence in PAP-stained neoplastic sputum cells; assay type: cell-based, human; settings: after PAP staining
From the text: To assist in the identification of the neoplastic cells, sputum samples which had the greatest TCPP uptake were stained with PAP stain, a stain routinely used by cytologists to identify neoplastic cells. Cells identified as neoplastic using the PAP stain were marked and re-examined for TCPP uptake with a fluorescent microscope.

[2] = system: cancers of the lung grown in tissue cultures; test: TCPP localization in lung cancers grown in tissue culture; assay type: cell-based
[3] = system: neoplastic sputum cells (squamous cell lung carcinoma, oat cell lung carcinoma, lung adenocarcinoma, advanced metastatic lymphoma); test: Fluorescence of sputum samples from lung cancer patients versus noncancerous patients; assay type: cell-based, human
Experimental: Studies were conducted using patients having confirmed squamous cell lung carcinoma, oat cell lung carcinoma, lung adenocarcinoma, and advanced metastatic lymphoma (lung metastasis) using procedures identical to those set forth above.

[4] = system: malignant sputum cells; test: Porphyrin uptake in sputum cells evaluated with a fluorescent microscope; assay type: cell-based, human
From the text: Five parameters were investigated for this study: (1) the effect of various sputum processing procedures on the uptake of porphyrin in sputum cells, (2) the comparison of TCPP to three other porphyrins that are known for their uptake by tumors, (3) the time required for optimal uptake of the porphyrin in sputum cells, (4) the uptake of porphyrin in test and control sputum samples, and (5) the verification that TCPP was localizing in malignant sputum cells. In each of these investigations, the uptake of porphyrin in sputum cells was evaluated with a fluorescent microscope. Nonmetallated porphyrin fluoresces at approximately 650 nm. Sputum samples were evaluated for (1) the number of cells in the sputum samples which fluoresced, and (2) the intensity of the porphyrin fluorescence.
Sputum samples require processing in order to produce a single cell suspension of lung cells. Sputum samples from test and control patients were collected and processed with alcohol and carbowax, alcohol only, phosphate-buffered saline (PBS), or left unprocessed. All samples were mixed with a blender for 1 minute following the addition of the processing mixture and then placed into petri dishes containing various porphyrins. […] Cells in the unprocessed sputum samples remained attached to the bottom of the petri dish with only a few cells free of the mucous.
Four porphyrins selected for their known affinity for neoplastic cells were tested for their ability to detect malignant sputum cells. Sputum cells obtained from each of the four processing procedures set forth above were treated with one of hematoporphyrin derivative, HPD, 5,10,15,20-tetrakis(4-carboxyphenyl)porphine, TCPP, 5,10,15,20-tetrakis(4-sulfonatophenyl)porphine, TTPS, or uroporphyrin, URO. In all investigations, the porphyrins were dissolved in tissue culture medium at a concentration of 200 μg/ml. Following the addition of porphyrin, each sample was incubated at 37° C. for a specific length of time.
Following the incubation period, each sputum sample was examined for porphyrin uptake with a fluorescent microscope. The background fluorescence from porphyrin uptake by nonmalignant cells was lower in some measurements.
Each sputum sample was incubated at 37° C. with each of the porphyrins for either 6 or 24 hours and then evaluated for porphyrin uptake with a fluorescent microscope. At the 6 hour incubation period, the cells had begun to localize porphyrin; however, when the sputum cells were washed with PBS, the fluorescence diminished considerably. […] By 24 hours, by contrast, the uptale of porphyrin by sputum cells increased considerably. […] When the sputum cells that had been incubated for 24 hours were washed with PBS, the porphyrin remained attached to the cells. Longer incubation times were not investigated.
When porphyrin uptake in the test and control samples were compared (i.e., the number of sputum cells which fluoresced), the porphyrin uptake in the control samples was considerably lower than the uptake in the test samples. In addition, the fluorescence intensity of the few control cells that did floresce was lower than the fluorescence intensity of the test cells.

[5] = system: squamous carcinoma cells; test: TCPP uptake in squamous carcinoma cells, flow cytometry; assay type: cell-based; settings: squamous carcinoma cells grown in culture
[6] = system: normal human lung epithelial cells; test: TCPP uptake in normal lung epithelial cells; assay type: cell-based
[7] = system: human small cell (oat cell) lung carcinoma; test: TCPP uptake in small cell lung carcinoma cells; assay type: cell-based
[8] = Biological half-life study; assay type: in vivo; settings: rats, intravenous; exponential decay
From the text: (§1) A sterile dose of ^67 CuTCPP (1.0×10^-6 gm) was intravenously injected into the tail vein of rats.

[9] = Biodistribution in rats after intravenous injection; assay type: in vivo; settings: normal rats (no cancer), 1.0×10^-6 gm
From the text: as §1

[10] = Serum stability: loss of copper measured by fluorescence under simulated physiological conditions; assay type: in vitro ADME, human
From the text: An important consideration in the development of a radiopharmaceutical is the stability of the complex ^67 Cu TCPP to the loss of the radioisotope ^67 Cu in vivo.

[11] = 200 μg/ml, 37° C., four porphyrins compared

Molecule: O=C(O)c1ccc(-c2c3nc(c(-c4ccc(C(=O)O)cc4)c4ccc([nH]4)c(-c4ccc(C(=O)O)cc4)c4nc(c(-c5ccc(C(=O)O)cc5)c5ccc2[nH]5)C=C4)C=C3)cc1 [TCPP, 5,10,15,20-tetrakis(4-carboxyphenyl)porphine]
- TCPP fluorescence in neoplastic cells identified by PAP stain [1]: seen in every neoplastic cell
- incubation time for TCPP localization ([2]; 24 hours in TCPP): more than adequate to maximize the TCPP localization
- effect of fixing the cells prior to TCPP exposure on TCPP uptake ([2]; fixed prior to TCPP exposure): increased the TCPP uptake
- effect of paraformaldehyde fixation on TCPP uptake ([2]; paraformaldehyde vs alcohol and carbowax): slightly increase the TCPP uptake
- localization in cultured lung cancers ([2]; tissue culture): localizes in cancers of the lung grown in tissue cultures
- uptake of porphyrin in neoplastic sputum cells ([3]; carbowax and ethanol): greatest uptake of porphyrin in neoplastic sputum cells
- number of fluorescent cells times fluorescence intensity, cancer patients vs noncancerous patients ([3]; sputum samples): 3-6 times
- contrast (brightness) between fluorescing malignant cells and background fluorescence [4, 11]: greatest contrast (brightness)
- number of cells fluorescing [4, 11]: greatest number of cells fluorescing
- porphyrin uptake [4, 11]: significant porphyrin uptake in the malignant bodies
- TCPP uptake by sputum processing procedure ([4]; alcohol or alcohol/carbowax processing vs PBS or unprocessed): highest TCPP uptake
- difference between the uptake of porphyrin by test and control sputum cells ([4]; four porphyrins compared): most dramatic difference
- detection by flow cytometry [5]: can easily be detected using flow cytometry
- TCPP concentration relative to autofluorescence or background ([6]; normal human lung epithelial cells): only slightly above autofluorescence or background levels
- TCPP concentration relative to neoplastic cell lines ([6]; vs neoplastic cell lines examined): many times lower concentration
- TCPP uptake compared with normal cells ([7]; vs normal cells): considerably higher than uptake in normal cells
- TCPP absorption lower than in squamous cell line ([7]; vs squamous cell line): 2-3 times lower

Molecule: uroporphyrin [reference compound]
- porphyrin uptake [4, 11]: least porphyrin uptake

Molecule: O=C([O-])c1ccc(C2=C3C=CC(=N3)C(c3ccc(C(=O)[O-])cc3)=C3C=CC(=N3)C(=c3ccc(=C([O-])[O-])cc3)c3ccc([n-]3)C(c3ccc(C(=O)[O-])cc3)=C3C=CC2=N3)cc1.[67Cu+2].[H+].[H+].[H+].[H+] [^67 CuTCPP]
- biological half-life [8]: 108 hours
- uptake by normal lung tissue [9]: does not appear to take up significant quantities
- major organs of localization ([9]; tail vein): liver and kidney
- conversion (loss of copper) ([10]; human serum albumin, EDTA and DTPA, up to 12 days, one percent is the limit of detection): less than one
- transcomplexation with other metal ions ([10]; ultraviolet-visible spectroscopy): no detectable transcomplexation with other metal ions
